Like-named read-outs stand apart in the source and are kept apart here.

Data on four molecules can be found in patent publication US20250136689A1, “COMPOSITIONS FOR AND METHODS OF TREATING HEMATOLOGICAL CANCERS” (Duke University, priority 2022, published 2025).

Data set [1] relates to c1498 murine AML (Acute Myeloid Leukemia) cells. Description: Survival of FACS-sorted phosphatidylserine-positive c1498 AML cells. It is filed as cell-based. Conditions: Mus musculus, c1498 cells treated with cytarabine (1 μM) for 24 hrs, estimated from growth rates. From the text: FIG. 1A-FIG. 1C show the survival of phosphatidylserine-expressing AML cells. […] The rectangles indicate the sorted cells. […] About 1000 each of the sorted cells were placed into multi-well plates. When the cells reached sufficient numbers, they were counted at different time points to measure their growth rates. The growth rates were then used to estimate the initial live cell numbers. The following formula was used to calculate the minimal initial live cell numbers: Minimal initial cell number=Total cell population/(growth rate*t)(days to reach the current cell number).
To determine whether cells expression high-level of PS expression on the cell surface are destined to die, the viability of c1498 murine AML (Acute Myeloid Leukemia) cells treated with cytarabine (part of a classical chemotherapy regimen for human AML) was examined. Specifically, whether cell surface PS-expressing acute myelocytic leukemia (AML) cells survived was examined. FACS was used to identify and sort cells with high cell surface PS-expression and the ability to survive was measured. FIG. 1A-FIG. 1B). In FIG. 1A, FACS sorting of untreated c1498 cells (in DMEM with 8% FBS). The rectangles indicate the sorted cells. In FIG. 1B, FACS sorting of c1498 cells treated with cytarabine (1 μM) for 24 hrs). […] When the cells reached sufficient numbers, the cells were counted at different time points to measure growth rates. […]

The subject of the next data set is various cancer cells. Conditions: various cancer cells in vitro; versus irinotecan; cited from earlier work.
The conditions of data set [2]: versus doxorubicin; cited from earlier work.
Another data set relates to KG1a human AML cell line. Nature of the data set: Phagocytosis assay with THP1-derived macrophages. It is filed as cell-based. Conditions: untreated or doxorubicin-treated cells; 2 hrs incubation; versus isotype control (IgG1). How it is done:
THP1 cells transduced with mCherry were differentiated into macrophages following previously established procedures. The macrophages were then incubated with non-treated or doxorubicin-treated KG1a human AML cell line transduced with EGFP in the presence of either isotype control (IgG1) or AnnexinV-IgG1Fc. After 2 hrs of incubation, the macrophages and the KG1a cells they have engulfed were counted.
The ability of THP1-derived macrophages to phagocytose control or doxorubicin-treated […] cells was examined. […] Representative fluorescence images of phagocytosis assay. THP1 cells transduced with mCherry were differentiated into macrophages following previously established procedures. The cells were then incubated with non-treated or doxorubicin-treated KG1a human AML cell line transduced with EGFP in the presence of either isotype control (IgG1) or AnnexinV-IgG1Fc. After 2 hrs of incubation, the macrophages and the KG1a cells they have engulfed were counted (FIG. 2A). Quantitative estimates of phagocytosis of KG1a cells by THP1-derived macrophages, the phagocytic index was calculated as: (Average number of KG1a cells engulfed per macrophage)×(percentage of macrophages which have engulfed KG1a cells)×[…] (FIG. 2B).

The test system of a further data set is c1498 AML. Description: Survival of C57BL/6 mice injected with c1498 AML cells. It is filed as in vivo. Particulars: combination: cytarabine 100 mg/kg i.p. every 12 hrs for 3 times, then Annexin V-Fc i.p. 4 times at 72 hours intervals. The method, then:
About 2×10^5 c1498 cells were injected into the tail vein of C57BL/6 mice. At 24 hrs after the injection, the mice were treated with 100 mg/kg cytarabine (injected i.p. every 12 hrs for 3 times). At 24 hrs after the last treatment, Annexin V-Fc was given i.p. 4 times at 72 hours intervals. The mice were then observed and sacrificed until they were moribund. Shown were the survival of different mice after they were treated with different antibody and drug combinations.
Whether Annexin V-IgG1Fc fusion protein can enhance the treatment of c1498 AML in syngeneic mice (C57BL/6) in combination with cytarabine, a commonly used drug for AML treatment, was examined. […] Here, about 2×10^5 c1498 cells were injected into the tail vein of C57BL/6 mice. At 24 hrs after the injection, the mice were treated with 100 mg/kg cytarabine (injected i.p. every 12 hrs for 3 times). At 24 hrs after the last treatment, Annexin V-Fc was given i.p. 4 times at 72 hours intervals. The mice were then observed and sacrificed until they are moribund.

Regarding `Nc1ccn([C@@H]2O[C@H](CO)[C@@H](O)[C@@H]2O)c(=O)n1` [cytarabine], the viability at 1 µM in data set [1] (read-out: proportion of PS+7AAD+ c1498 cells that remained viable and could proliferate) was approximately 8%; in data set [1] (read-out: proportion of PS+7AAD- c1498 cells that remained viable and could proliferate), approximately 25%.
Turning to `CCc1c2c(nc3ccc(O)cc13)-c1cc3c(c(=O)n1C2)COC(=O)[C@]3(O)CC` [SN-38, 7-ethyl-10-hydroxy-camptothecin], the “cytotoxic activity relative to irinotecan” value in the data set with various cancer cells is reported as “up to 1,000 fold”.
For calicheamicin, the “potency relative to doxorubicin” value in data set [2] is “approximately 4000 times”.
On to “Annexin V-IgG1Fc fusion protein: Annexin V fused to the Fc domain of IgG1; SEQ ID NO:85 is the form with secretion signal”, for which, in the data set with KG1a human AML cell line, the “phagocytosis of AML cells by THP1-derived macrophages (phagocytic index)” value was “effectively boosted the phagocytosis”. The “median survival of host mice” value in the data set on c1498 AML is recorded as more than 62 days.
